{"source": "patent US20100248377A1", "about": "“DETECTION OF CONTRAST MEDIUM-INDUCED NEPHROTOXICITY” (priority 2007, published 2010)", "type_in_all_cases": "in vivo, human", "key": {"[1]": {"tested_on": "total adiponectin (urine)", "assay": "Dose response analysis, total adiponectin in urine of PCTA patients after contrast medium", "conditions": "for Adiponectin Changes: 24 h vs 0 h; for 24 h Adiponectin: urine", "protocol": "(§1) The effect of the administration of various amounts of the contrast medium Iobitridol (Xenetix, Xen 350) on the level of creatinine, urotensin II, total adiponectin and L-FABP in urine samples obtained from subjects which underwent percutaneous transluminal coronary angioplasty (PCTA) was analysed. All six patients examined in this study had no apparent renal disorder indicated by a serum creatinine level of less than 1.2 mg/dl (before PCTA). Each patient received a different amount of the contrast medium (50 ml, 80 ml, 100 ml, 150 ml, 220 ml and 350 ml, respectively). The urinary levels of creatinine, urotensin II, total adiponectin and L-FABP were determined in samples that were obtained prior to the administration of different volumes of the contrast medium (time point 0) and 24 h after the administration of the contrast medium. […] The results are normalized to the urinary creatinine concentration. From the data it clearly can be seen that a high dose of an administered contrast medium leads to a significant increase of adiponectin and L-FABP."}, "L-FABP (urine) [2]": {"tested_on": "L-FABP (urine)", "assay": "Dose response analysis, L-FABP in urine of PCTA patients after contrast medium", "conditions": "for L-FABP Changes: 24 h vs 0 h; for 24 h L-FABP: urine", "protocol": "as §1"}, "urotensin II (urine) [3]": {"tested_on": "urotensin II (urine)", "assay": "Dose response analysis, urotensin II in urine of PCTA patients after contrast medium", "conditions": "24 h after vs before administration; six patients, 50-350 ml", "protocol": "as §1"}, "creatinine (urine) [4]": {"tested_on": "creatinine (urine)", "assay": "Dose response analysis, creatinine in urine of PCTA patients after contrast medium", "conditions": "24 h after vs before administration; six patients, 50-350 ml", "protocol": "as §1"}, "creatinine (urine) [5]": {"tested_on": "creatinine (urine)", "assay": "Example 2 study, 20 PCTA subjects, urine creatinine after contrast medium", "conditions": "n = 20, t = 0 h value 0.75", "protocol": "(§2) In a different study, the effect of the administration of the contrast medium lobitridol (Xenetix, Xen 350) on the urine level of creatinine, urotensin II, total adiponectin and L-FABP in samples obtained from 20 subjects which underwent percutaneous transluminal coronary angioplasty (PCTA) was analyzed. Samples were obtained prior to the administration of the contrast medium (t=0 h), four hours after administration of the contrast medium (t=4 h), as well as 24 hours after administration of the contrast medium."}, "L-FABP (urine) [6]": {"tested_on": "L-FABP (urine)", "assay": "Example 2 study, 20 PCTA subjects, urine L-FABP after contrast medium", "conditions": "for L-FABP, median: urine, n = 20, t = 0 h value 13.44", "protocol": "as §2"}, "urotensin II (urine) [7]": {"tested_on": "urotensin II (urine)", "assay": "Example 2 study, 20 PCTA subjects, urine urotensin II after contrast medium", "conditions": "for Urotensin II, median: urine, n = 20, t = 0 h value 1.18", "protocol": "as §2"}, "[8]": {"tested_on": "total adiponectin (urine)", "assay": "Example 2 study, 20 PCTA subjects, urine total adiponectin after contrast medium", "conditions": "n = 20, t = 0 h value 0.66", "protocol": "as §2"}, "HMW adiponectin (urine)": {"tested_on": "HMW adiponectin (urine)", "assay": "Example 3 case, coronary angiography, urine HMW adiponectin", "conditions": "person, 350 ml, 24 hours after administration; before 0.92", "protocol": "(§3) In order to examine whether the chest pain is caused by a coronary artery disease, a coronary angiography is initiated. A serum sample is obtained from the patient prior to the angiography and the amount of creatinine is determined in a serum sample (0.9 mg/dl). Moreover, in a urine sample HMW adiponectin, urotensin II and L-FABP are determined (adiponectin 0.92 μg/g Creatinine; L-FABP 7 μg/g Creatinine; Urotensin II: 1.2 μg/g Creatinine).\n(§4) For coronary angiography 350 ml Xen350 are administered to the patient as a contrast medium. After successful coronary angiography, the patient is monitored for 24 hours. Moreover, creatinine (serum level: 1 mg/dl), adiponectin, L-FABP and urotensin II are determined again after 24 hours after the administration of the contrast medium (urine level: adiponectin 1.55 μg/g Creatinine; L-FABP 21 μg/g Creatinine; Urotensin II: 6 μg/g Creatinine)."}, "L-FABP (urine) [9]": {"tested_on": "L-FABP (urine)", "assay": "Example 3 case, coronary angiography, urine L-FABP", "conditions": "person, 350 ml, 24 hours after administration; before 7", "protocol": "as §3, §4"}, "urotensin II (urine) [10]": {"tested_on": "urotensin II (urine)", "assay": "Example 3 case, coronary angiography, urine urotensin II", "conditions": "person, 350 ml, 24 hours after administration; before 1.2", "protocol": "as §3, §4"}, "serum creatinine": {"tested_on": "serum creatinine", "assay": "Example 3 case, coronary angiography, serum creatinine and renal outcome", "conditions": "person, 350 ml", "protocol": "as §3, §4"}, "[11]": {"conditions": "24 h after vs before administration, six patients, 50-350 ml"}}}
{"smiles": "CN(CC(O)CO)C(=O)c1c(I)c(NC(=O)C(CO)CO)c(I)c(C(=O)N(C)CC(O)CO)c1I", "note": "(centres unmarked) [Xen350, Iobitridol]", "values": [{"measurement": "increase of median adiponectin in urine", "setting": "[1]; [11]", "result": 400, "unit": "%"}, {"measurement": "Adiponectin Changes", "setting": "[1]; Patient 1, 50 ml", "result": "−88", "unit": "%"}, {"measurement": "24 h Adiponectin", "setting": "[1]; Patient 1, 50 ml, 0 h value 0.92", "result": 0.11, "unit": "ug/g Crea"}, {"measurement": "Adiponectin Changes", "setting": "[1]; Patient 2, 80 ml", "result": "−22", "unit": "%"}, {"measurement": "24 h Adiponectin", "setting": "[1]; Patient 2, 80 ml, 0 h value 2.99", "result": 2.34, "unit": "ug/g Crea"}, {"measurement": "Adiponectin Changes", "setting": "[1]; Patient 3, 100 ml", "result": "−44", "unit": "%"}, {"measurement": "24 h Adiponectin", "setting": "[1]; Patient 3, 100 ml, 0 h value 2.68", "result": 1.49, "unit": "ug/g Crea"}, {"measurement": "Adiponectin Changes", "setting": "[1]; Patient 4, 150 ml", "result": "−91", "unit": "%"}, {"measurement": "24 h Adiponectin", "setting": "[1]; Patient 4, 150 ml, 0 h value 0.32", "result": 0.03, "unit": "ug/g Crea"}, {"measurement": "Adiponectin Changes", "setting": "[1]; Patient 5, 220 ml", "result": 897, "unit": "%"}, {"measurement": "24 h Adiponectin", "setting": "[1]; Patient 5, 220 ml, 0 h value 0.41", "result": 3.68, "unit": "ug/g Crea"}, {"measurement": "Adiponectin Changes", "setting": "[1]; Patient 6, 350 ml", "result": 690, "unit": "%"}, {"measurement": "24 h Adiponectin", "setting": "[1]; Patient 6, 350 ml, 0 h value 0.1", "result": 0.69, "unit": "ug/g Crea"}, {"measurement": "increase of median L-FABP in urine", "setting": "L-FABP (urine) [2]; [11]", "result": 415, "unit": "%"}, {"measurement": "L-FABP Changes", "setting": "L-FABP (urine) [2]; Patient 1, 50 ml", "result": "−45", "unit": "%"}, {"measurement": "24 h L-FABP", "setting": "L-FABP (urine) [2]; Patient 1, 50 ml, 0 h value 20.19", "result": 11.17, "unit": "ug/g Crea"}, {"measurement": "L-FABP Changes", "setting": "L-FABP (urine) [2]; Patient 2, 80 ml", "result": 49, "unit": "%"}, {"measurement": "24 h L-FABP", "setting": "L-FABP (urine) [2]; Patient 2, 80 ml, 0 h value 42.71", "result": 63.48, "unit": "ug/g Crea"}, {"measurement": "L-FABP Changes", "setting": "L-FABP (urine) [2]; Patient 3, 100 ml", "result": 40, "unit": "%"}, {"measurement": "24 h L-FABP", "setting": "L-FABP (urine) [2]; Patient 3, 100 ml, 0 h value 13.77", "result": 19.33, "unit": "ug/g Crea"}, {"measurement": "L-FABP Changes", "setting": "L-FABP (urine) [2]; Patient 4, 150 ml", "result": 481, "unit": "%"}, {"measurement": "24 h L-FABP", "setting": "L-FABP (urine) [2]; Patient 4, 150 ml, 0 h value 6.8", "result": 32.74, "unit": "ug/g Crea"}, {"measurement": "L-FABP Changes", "setting": "L-FABP (urine) [2]; Patient 5, 220 ml", "result": 544, "unit": "%"}, {"measurement": "24 h L-FABP", "setting": "L-FABP (urine) [2]; Patient 5, 220 ml, 0 h value 13.1", "result": 71.23, "unit": "ug/g Crea"}, {"measurement": "L-FABP Changes", "setting": "L-FABP (urine) [2]; Patient 6, 350 ml", "result": 406, "unit": "%"}, {"measurement": "24 h L-FABP", "setting": "L-FABP (urine) [2]; Patient 6, 350 ml, 0 h value 4.36", "result": 17.71, "unit": "ug/g Crea"}, {"measurement": "increase of median urotensin II in urine", "setting": "urotensin II (urine) [3]", "result": 350, "unit": "%"}, {"measurement": "increase of median creatinine in urine", "setting": "creatinine (urine) [4]", "result": 41, "unit": "%"}, {"measurement": "Creatinine, median", "setting": "creatinine (urine) [5]; t = 4 h", "result": 0.45, "unit": "g/L"}, {"measurement": "Creatinine, median", "setting": "creatinine (urine) [5]; t = 24 h", "result": 1.05, "unit": "g/L"}, {"measurement": "L-FABP", "setting": "L-FABP (urine) [6]; Table 3 Patient 1, t = 4 h, t = 0 h value 12", "result": 6, "unit": "μg/g Creatinine"}, {"measurement": "L-FABP", "setting": "L-FABP (urine) [6]; Table 3 Patient 1, t = 24 h, t = 0 h value 12", "result": 26, "unit": "μg/g Creatinine"}, {"measurement": "L-FABP", "setting": "L-FABP (urine) [6]; Table 3 Patient 2, t = 4 h, t = 0 h value 5", "result": 6, "unit": "μg/g Creatinine"}, {"measurement": "L-FABP", "setting": "L-FABP (urine) [6]; Table 3 Patient 2, t = 24 h, t = 0 h value 5", "result": 33, "unit": "μg/g Creatinine"}, {"measurement": "L-FABP, median", "setting": "L-FABP (urine) [6]; t = 4 h", "result": 12.16, "unit": "μg/g Creatinine"}, {"measurement": "L-FABP, median", "setting": "L-FABP (urine) [6]; t = 24 h", "result": 26.03, "unit": "μg/g Creatinine"}, {"measurement": "Urotensin II", "setting": "urotensin II (urine) [7]; Table 3 Patient 1, t = 4 h, t = 0 h value 832", "result": 999, "unit": "pg/mL"}, {"measurement": "Urotensin II", "setting": "urotensin II (urine) [7]; Table 3 Patient 1, t = 24 h, t = 0 h value 832", "result": 2591, "unit": "pg/mL"}, {"measurement": "Urotensin II", "setting": "urotensin II (urine) [7]; Table 3 Patient 2, t = 4 h, t = 0 h value 1043", "result": 1131, "unit": "pg/mL"}, {"measurement": "Urotensin II", "setting": "urotensin II (urine) [7]; Table 3 Patient 2, t = 24 h, t = 0 h value 1043", "result": 39441, "unit": "pg/mL"}, {"measurement": "Urotensin II, median", "setting": "urotensin II (urine) [7]; t = 4 h", "result": 1.23, "unit": "μg/g Creatinine"}, {"measurement": "Urotensin II, median", "setting": "urotensin II (urine) [7]; t = 24 h", "result": 1.77, "unit": "μg/g Creatinine"}, {"measurement": "Adiponectin, median", "setting": "[8]; t = 4 h", "result": 0.89, "unit": "μg/g Creatinine"}, {"measurement": "Adiponectin, median", "setting": "[8]; t = 24 h", "result": 1.09, "unit": "μg/g Creatinine"}, {"measurement": "adiponectin urine level", "setting": "HMW adiponectin (urine)", "result": 1.55, "unit": "μg/g Creatinine"}, {"measurement": "L-FABP urine level", "setting": "L-FABP (urine) [9]", "result": 21, "unit": "μg/g Creatinine"}, {"measurement": "Urotensin II urine level", "setting": "urotensin II (urine) [10]", "result": 6, "unit": "μg/g Creatinine"}, {"measurement": "creatinine serum level", "setting": "serum creatinine; 24 hours after administration, before 0.9", "result": 1, "unit": "mg/dL"}, {"measurement": "serum creatinine level", "setting": "serum creatinine; after two more days (after the 24 h monitoring)", "result": 2.5, "unit": "mg/dL"}, {"measurement": "renal outcome diagnosed", "setting": "serum creatinine; after two more days, significantly reduced urine excretion", "result": "acute renal failure"}]}
